Tests used:
[1] = biological target: 5-hydroxytryptamine receptor 2B (Homo sapiens, UniProt P41595); type: functional, cell-based
[2] = biological target: T1, 5-hydroxytryptamine receptor 3A (Homo sapiens, UniProt P46098); type: functional
T1 sequence (P46098 whole entry): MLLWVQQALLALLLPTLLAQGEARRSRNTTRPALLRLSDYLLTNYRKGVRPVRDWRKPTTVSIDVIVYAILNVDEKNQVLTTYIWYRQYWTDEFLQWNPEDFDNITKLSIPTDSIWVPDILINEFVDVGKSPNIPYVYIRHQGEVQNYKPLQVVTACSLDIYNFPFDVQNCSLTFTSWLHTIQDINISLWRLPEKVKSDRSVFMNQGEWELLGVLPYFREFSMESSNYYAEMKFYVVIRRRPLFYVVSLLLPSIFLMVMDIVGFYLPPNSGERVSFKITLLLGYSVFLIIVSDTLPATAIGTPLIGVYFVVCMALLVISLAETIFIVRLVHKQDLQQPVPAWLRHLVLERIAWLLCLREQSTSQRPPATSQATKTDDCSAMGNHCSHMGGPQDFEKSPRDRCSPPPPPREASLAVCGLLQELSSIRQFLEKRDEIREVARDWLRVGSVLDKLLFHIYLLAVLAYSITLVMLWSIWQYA

[3] = biological target: T2, Type-1 angiotensin II receptor (Homo sapiens, UniProt P30556)
T2 sequence (P30556 whole entry): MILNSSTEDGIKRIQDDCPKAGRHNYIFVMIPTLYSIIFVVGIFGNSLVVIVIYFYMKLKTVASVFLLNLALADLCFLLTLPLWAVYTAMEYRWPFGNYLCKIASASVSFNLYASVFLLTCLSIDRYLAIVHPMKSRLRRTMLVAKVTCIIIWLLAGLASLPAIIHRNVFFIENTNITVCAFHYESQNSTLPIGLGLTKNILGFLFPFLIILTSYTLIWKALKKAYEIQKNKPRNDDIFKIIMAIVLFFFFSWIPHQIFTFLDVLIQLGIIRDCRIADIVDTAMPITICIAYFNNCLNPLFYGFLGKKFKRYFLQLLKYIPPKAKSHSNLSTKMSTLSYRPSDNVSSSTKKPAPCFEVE

Adenosine receptor A3 = biological target: T3, Adenosine receptor A3 (Homo sapiens, UniProt P0DMS8)
T3 sequence (P0DMS8 whole entry): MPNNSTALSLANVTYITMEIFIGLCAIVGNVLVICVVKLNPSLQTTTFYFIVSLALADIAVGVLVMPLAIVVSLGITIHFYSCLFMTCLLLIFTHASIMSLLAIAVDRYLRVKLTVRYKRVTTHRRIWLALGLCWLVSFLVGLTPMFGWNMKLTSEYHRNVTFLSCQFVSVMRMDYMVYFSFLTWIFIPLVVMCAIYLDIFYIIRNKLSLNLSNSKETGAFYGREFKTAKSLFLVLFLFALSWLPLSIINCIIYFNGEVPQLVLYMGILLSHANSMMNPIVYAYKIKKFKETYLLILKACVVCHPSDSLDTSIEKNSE

Melanocortin receptor 3 = Melanocortin receptor 3 (Homo sapiens, UniProt P41968)
Melanocortin receptor 3, sequence (P41968 whole entry): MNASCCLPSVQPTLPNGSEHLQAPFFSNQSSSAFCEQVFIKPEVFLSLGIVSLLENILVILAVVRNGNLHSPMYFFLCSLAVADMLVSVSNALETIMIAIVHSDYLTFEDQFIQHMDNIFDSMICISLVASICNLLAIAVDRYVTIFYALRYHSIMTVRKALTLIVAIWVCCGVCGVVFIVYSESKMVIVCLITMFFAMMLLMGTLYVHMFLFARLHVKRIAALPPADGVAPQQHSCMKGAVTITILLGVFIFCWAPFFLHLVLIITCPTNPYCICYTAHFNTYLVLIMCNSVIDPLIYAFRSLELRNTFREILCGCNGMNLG

Motilin receptor = Motilin receptor (Homo sapiens, UniProt O43193)
Motilin receptor, sequence (O43193 whole entry): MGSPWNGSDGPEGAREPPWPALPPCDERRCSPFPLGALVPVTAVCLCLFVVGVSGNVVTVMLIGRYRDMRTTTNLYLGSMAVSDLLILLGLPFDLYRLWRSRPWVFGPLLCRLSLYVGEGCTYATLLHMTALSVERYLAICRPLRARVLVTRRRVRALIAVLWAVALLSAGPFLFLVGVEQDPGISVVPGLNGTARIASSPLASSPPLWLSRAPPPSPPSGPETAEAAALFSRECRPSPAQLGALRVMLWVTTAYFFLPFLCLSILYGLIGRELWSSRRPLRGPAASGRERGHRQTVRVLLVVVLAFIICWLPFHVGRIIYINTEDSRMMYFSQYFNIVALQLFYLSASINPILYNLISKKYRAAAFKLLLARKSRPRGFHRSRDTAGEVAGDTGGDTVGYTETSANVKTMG

[4] = biological target: Sodium-dependent noradrenaline transporter (Homo sapiens, UniProt P23975)
Sodium-dependent noradrenaline transporter, sequence (P23975 whole entry): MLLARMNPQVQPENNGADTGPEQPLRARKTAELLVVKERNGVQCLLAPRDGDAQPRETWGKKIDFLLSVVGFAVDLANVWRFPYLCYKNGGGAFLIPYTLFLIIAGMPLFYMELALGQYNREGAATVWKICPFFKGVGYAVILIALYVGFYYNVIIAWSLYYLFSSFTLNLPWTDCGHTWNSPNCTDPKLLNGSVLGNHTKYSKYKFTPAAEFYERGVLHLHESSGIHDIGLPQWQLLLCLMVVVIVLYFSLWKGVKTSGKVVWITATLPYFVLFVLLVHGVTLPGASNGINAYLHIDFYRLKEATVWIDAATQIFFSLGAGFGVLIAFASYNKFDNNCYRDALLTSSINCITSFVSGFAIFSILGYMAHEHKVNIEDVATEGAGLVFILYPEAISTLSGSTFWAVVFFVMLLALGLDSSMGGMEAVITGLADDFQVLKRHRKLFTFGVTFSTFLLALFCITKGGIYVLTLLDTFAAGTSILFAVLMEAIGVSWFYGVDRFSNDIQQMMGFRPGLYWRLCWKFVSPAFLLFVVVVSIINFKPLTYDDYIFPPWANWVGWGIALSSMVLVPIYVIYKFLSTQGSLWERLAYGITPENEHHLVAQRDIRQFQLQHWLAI

Bile salt export pump = Bile salt export pump (Homo sapiens, UniProt O95342); type: functional
Bile salt export pump, sequence (O95342 whole entry): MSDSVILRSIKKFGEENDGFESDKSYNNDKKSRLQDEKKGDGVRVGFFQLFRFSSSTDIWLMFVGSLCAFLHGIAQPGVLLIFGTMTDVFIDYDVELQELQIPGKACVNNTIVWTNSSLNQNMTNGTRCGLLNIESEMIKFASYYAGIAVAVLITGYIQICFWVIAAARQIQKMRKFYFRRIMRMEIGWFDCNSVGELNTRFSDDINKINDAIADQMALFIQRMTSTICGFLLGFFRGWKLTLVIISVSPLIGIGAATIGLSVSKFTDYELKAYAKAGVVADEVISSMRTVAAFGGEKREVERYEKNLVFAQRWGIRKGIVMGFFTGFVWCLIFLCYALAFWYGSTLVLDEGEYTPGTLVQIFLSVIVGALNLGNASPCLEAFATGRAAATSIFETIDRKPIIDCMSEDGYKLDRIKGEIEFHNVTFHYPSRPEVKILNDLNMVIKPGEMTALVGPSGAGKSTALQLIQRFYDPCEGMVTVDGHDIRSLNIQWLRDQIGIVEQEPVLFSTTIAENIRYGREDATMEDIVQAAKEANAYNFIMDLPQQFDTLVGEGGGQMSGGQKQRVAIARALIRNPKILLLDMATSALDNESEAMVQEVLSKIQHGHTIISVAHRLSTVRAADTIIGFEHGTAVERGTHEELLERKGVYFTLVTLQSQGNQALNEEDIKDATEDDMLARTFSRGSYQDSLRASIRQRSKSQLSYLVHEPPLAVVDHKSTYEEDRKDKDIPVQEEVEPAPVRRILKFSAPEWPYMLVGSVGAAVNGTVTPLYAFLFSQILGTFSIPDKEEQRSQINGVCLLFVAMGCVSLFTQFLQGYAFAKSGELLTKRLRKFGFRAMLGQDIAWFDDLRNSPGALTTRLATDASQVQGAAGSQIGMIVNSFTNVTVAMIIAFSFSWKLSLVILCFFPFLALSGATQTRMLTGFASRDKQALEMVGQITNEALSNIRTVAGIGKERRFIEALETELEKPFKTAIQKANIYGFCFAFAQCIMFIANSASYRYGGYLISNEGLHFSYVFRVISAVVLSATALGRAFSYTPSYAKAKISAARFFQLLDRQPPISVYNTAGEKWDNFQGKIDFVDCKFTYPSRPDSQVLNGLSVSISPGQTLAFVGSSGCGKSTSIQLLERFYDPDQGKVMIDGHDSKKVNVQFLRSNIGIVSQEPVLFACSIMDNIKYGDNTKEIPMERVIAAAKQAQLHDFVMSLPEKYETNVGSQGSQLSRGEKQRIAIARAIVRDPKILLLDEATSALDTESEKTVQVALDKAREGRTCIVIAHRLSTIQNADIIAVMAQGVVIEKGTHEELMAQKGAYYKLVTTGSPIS

[5] = biological target: T4, 5-hydroxytryptamine receptor 1A (Homo sapiens, UniProt P08908); type: functional, cell-based
T4 sequence (P08908 whole entry): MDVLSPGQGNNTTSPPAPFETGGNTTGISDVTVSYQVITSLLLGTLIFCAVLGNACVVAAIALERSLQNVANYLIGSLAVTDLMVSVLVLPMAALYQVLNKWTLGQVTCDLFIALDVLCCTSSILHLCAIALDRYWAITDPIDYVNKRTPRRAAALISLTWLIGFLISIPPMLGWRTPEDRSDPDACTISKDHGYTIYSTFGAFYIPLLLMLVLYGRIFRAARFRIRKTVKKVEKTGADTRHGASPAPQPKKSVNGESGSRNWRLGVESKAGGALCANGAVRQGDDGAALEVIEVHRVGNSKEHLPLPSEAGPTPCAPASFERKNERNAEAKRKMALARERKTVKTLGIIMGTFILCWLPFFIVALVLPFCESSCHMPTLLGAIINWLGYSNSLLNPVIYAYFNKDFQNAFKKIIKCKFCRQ

Adenosine receptor A2a = Adenosine receptor A2a (Homo sapiens, UniProt P29274)
Adenosine receptor A2a, sequence (P29274 whole entry): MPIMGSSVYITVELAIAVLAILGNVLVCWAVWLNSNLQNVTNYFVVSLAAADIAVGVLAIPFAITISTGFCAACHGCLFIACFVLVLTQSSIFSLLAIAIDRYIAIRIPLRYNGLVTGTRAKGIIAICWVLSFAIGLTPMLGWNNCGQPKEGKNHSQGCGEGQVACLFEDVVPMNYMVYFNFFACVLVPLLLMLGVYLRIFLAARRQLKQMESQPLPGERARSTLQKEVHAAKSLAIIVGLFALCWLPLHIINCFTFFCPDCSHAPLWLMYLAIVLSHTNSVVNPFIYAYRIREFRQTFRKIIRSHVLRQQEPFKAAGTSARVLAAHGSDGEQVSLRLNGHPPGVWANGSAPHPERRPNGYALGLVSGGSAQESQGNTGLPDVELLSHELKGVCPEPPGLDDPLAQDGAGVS

[6] = biological target: T5, Alpha-2A adrenergic receptor (Homo sapiens, UniProt P08913); type: functional, cell-based
T5 sequence (P08913 whole entry): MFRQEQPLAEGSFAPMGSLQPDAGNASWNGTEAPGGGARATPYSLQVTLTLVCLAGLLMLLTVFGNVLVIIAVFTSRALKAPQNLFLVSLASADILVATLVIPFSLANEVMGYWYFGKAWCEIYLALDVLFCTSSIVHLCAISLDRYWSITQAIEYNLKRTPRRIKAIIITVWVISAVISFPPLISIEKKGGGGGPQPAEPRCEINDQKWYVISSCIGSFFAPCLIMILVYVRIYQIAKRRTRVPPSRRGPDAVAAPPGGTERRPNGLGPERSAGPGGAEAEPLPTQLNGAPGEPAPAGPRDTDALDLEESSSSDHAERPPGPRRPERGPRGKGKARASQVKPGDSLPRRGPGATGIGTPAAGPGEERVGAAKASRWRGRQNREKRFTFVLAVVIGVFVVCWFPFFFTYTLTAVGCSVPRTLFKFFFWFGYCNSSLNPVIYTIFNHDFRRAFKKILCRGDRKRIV

D(3) dopamine receptor = D(3) dopamine receptor (Homo sapiens, UniProt P35462)
D(3) dopamine receptor, sequence (P35462 whole entry): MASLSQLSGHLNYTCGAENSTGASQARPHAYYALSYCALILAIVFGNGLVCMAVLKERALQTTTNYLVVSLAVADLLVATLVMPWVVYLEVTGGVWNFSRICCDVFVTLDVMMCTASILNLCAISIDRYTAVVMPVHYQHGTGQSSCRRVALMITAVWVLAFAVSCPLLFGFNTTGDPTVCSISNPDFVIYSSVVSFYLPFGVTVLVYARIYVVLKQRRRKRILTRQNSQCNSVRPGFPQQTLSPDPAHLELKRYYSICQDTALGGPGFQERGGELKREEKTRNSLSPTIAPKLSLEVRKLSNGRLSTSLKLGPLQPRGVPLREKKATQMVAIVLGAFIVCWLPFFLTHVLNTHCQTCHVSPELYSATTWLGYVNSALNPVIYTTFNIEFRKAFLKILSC

[7] = biological target: Neuronal acetylcholine receptor subunit alpha-4 (Homo sapiens, UniProt P43681)
Neuronal acetylcholine receptor subunit alpha-4, sequence (P43681 whole entry): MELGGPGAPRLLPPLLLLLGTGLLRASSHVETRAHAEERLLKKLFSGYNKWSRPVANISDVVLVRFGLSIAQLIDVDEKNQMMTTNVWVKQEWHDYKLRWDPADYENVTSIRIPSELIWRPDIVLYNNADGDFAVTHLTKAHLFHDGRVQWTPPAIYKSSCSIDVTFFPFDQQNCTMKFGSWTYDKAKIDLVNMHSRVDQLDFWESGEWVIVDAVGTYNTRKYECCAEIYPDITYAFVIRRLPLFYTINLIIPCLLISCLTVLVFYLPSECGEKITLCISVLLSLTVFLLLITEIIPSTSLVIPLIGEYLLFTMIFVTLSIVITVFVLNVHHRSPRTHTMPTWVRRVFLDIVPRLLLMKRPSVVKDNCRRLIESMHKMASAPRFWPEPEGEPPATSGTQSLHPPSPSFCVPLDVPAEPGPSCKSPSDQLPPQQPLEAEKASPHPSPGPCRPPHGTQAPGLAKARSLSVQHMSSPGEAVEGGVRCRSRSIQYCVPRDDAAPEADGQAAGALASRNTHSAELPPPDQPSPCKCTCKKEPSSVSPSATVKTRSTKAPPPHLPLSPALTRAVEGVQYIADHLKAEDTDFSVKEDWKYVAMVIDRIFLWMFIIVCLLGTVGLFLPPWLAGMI

[8] = biological target: Growth hormone secretagogue receptor type 1 (Homo sapiens, UniProt Q92847)
Growth hormone secretagogue receptor type 1, sequence (Q92847 whole entry): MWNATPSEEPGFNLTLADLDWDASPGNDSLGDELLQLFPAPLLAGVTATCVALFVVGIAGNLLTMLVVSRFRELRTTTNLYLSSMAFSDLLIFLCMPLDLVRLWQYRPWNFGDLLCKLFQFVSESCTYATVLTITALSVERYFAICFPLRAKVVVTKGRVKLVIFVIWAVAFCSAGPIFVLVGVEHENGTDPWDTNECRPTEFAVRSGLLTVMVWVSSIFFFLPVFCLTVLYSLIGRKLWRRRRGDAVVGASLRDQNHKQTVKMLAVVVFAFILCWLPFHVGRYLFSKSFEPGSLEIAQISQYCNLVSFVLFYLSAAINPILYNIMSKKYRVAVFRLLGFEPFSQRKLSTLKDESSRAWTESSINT
Note: assay procedure not described here.

5-hydroxytryptamine receptor 2B, sequence (P41595 whole entry): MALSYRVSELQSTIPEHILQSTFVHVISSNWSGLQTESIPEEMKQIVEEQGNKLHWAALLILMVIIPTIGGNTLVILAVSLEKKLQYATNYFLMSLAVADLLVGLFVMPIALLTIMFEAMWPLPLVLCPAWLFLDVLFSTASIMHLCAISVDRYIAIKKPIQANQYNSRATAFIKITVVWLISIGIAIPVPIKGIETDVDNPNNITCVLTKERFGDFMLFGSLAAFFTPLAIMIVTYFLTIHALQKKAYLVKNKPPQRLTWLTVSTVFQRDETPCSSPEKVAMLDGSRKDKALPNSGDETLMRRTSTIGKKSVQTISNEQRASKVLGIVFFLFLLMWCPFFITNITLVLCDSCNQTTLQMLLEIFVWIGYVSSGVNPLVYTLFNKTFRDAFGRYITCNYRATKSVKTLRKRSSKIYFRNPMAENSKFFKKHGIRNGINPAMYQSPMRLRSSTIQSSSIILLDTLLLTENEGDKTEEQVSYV

AC50 [1]: > 30 µM
AC50 [2]: > 30 µM
AC50 [3]: > 30 µM
AC50 (Adenosine receptor A3): > 30 µM
AC50 (Melanocortin receptor 3): > 30 µM
AC50 (Motilin receptor): > 30 µM
AC50 [4]: > 30 µM
AC50 (Bile salt export pump): > 300 µM
AC50 [5]: > 30 µM
AC50 (Adenosine receptor A2a): > 30 µM
AC50 [6]: > 30 µM
AC50 (D(3) dopamine receptor): > 30 µM
AC50 [7]: > 30 µM
AC50 [8]: > 30 µM
Structure (SMILES): Nc1c2c(nc3ccccc13)CCCC2O (centres undefined) [VELNACRINE]
